Residues, ends and D or L forms follow the SMILES beside them. No end group written: not given here. *: point of attachment. Cbz = O=C(OCc1ccccc1)*

The target in experiment [1] is T1, prolyl endopeptidase (PEP) (Elizabethkingia meningoseptica, UniProt P27028).
T1 construct: purchased Seikagaku Corporation, Tokyo, Japan
Briefly: biochemical. The procedure:
Prolyl endopeptidase (PEP) activity was determined using a previously described method. Reaction was performed by addition of 0.1 U/ml of PEP (Seikagaku Corporation, Tokyo, Japan) to a 100 mM phosphate buffer pH 7 containing 2 mM of Z-Gly-Pro-p-nitroaniline (Sigma, Madrid, Spain). Samples were incubated for 20 min at 30°C and then the reaction was stopped by adding a volume of 10.5% Triton X-100 in 1 M sodium acetate buffer pH 4. The amount of ρ-nitroaniline released was quantified by spectrophotometry at 410 nm. The inhibitory activity of PEP was determined by adding 100 µl of each sample obtained during the purification process to the enzymatic reaction. Z-Prolyl-Prolinal (ZPP) (0.000426 ppm, Biomol, Plymouth Meeting, USA) was used as positive control of inhibition.

Experiment [2] deals with C. elegans strain CL4176 (Aβ1–42). Briefly: body paralysis assay in transgenic C. elegans CL4176 expressing human Aβ1-42. The following applies: for effect on body paralysis (in words): compared with NGM controls; for Mid Paralysis (h), time when 50% of worms were paralyzed / % of worms non paralyzed at onset of paralysis / Onset Paralysis, time: peptides 1 µg/mL, ZPP 1 µM, “Barquillo” 10 µL/mL, fractions 10 µL/mL; for Mid Paralysis (h), time when 50% of worms were paralyzed: NGM 47 h; for % of worms non paralyzed at onset of paralysis: at the onset time, NGM 85.8%; for Onset Paralysis, time: time after Aβ42 induction, NGM 41 h. In kind it is in vivo, Caenorhabditis elegans. The procedure: Mutant strain GR1321 (tph-1(mg280)) was used in body fat reduction experiments. All the strains were obtained from the Caenorhabditis Genetics Center (University of Minnesota). Caenorhabditis elegans N2 and tph-1 were routinely propagated on Nematode Growth Medium (NGM) plates with Escherichia coli strain OP50 as a food source at 20°C, while CL4176 was maintained at 16°C. Worms were synchronized by isolating eggs from gravid adults at 20°C (N2 and tph-1) or 16°C (CL4176), and eggs were hatched overnight in NGM plates. In the experiments, the worms were fed with the different compounds from egg through to adult stages, and transferred to new plates every two days. […] ZPP (1 µM) was used as an internal positive control. Transgene expression was induced by up-shifting the temperature from 16°C to 25°C, starting 24 h after egg lying and maintained for 24 h. Then worms were incubated at 20°C until all the worms in the experiment became paralyzed. […] Paralysis in induced worms was compared with non-induced worms (maintained at 16°C until the end of the paralysis assay). Experiments were carried out in triplicate.

For experiment [3], the system named is C. elegans wild-type strain N2. Kind of experiment: survival of wild-type C. elegans N2 after H2O2-induced oxidative stress. In kind it is in vivo, Caenorhabditis elegans. The following applies: compared with NGM. The method, then: Experiments of oxidative stress, body fat reduction and microarrays were carried out with the wild-type strain N2 (Bristol). Paralysis assays were performed with the transgenic strain CL4176 (smg-1^ts [pAF29(myo-3/Aβ1–42/let UTR)+pRF4(rol-6(su10069))]). Paralysis is induced in strain CL4176 by expression of a muscle-specific Aβ1–42, which depends on up-shifting temperature from 16 to 25°C [21], [22]. Mutant strain GR1321 (tph-1(mg280)) was used in body fat reduction experiments. All the strains were obtained from the Caenorhabditis Genetics Center (University of Minnesota).
Caenorhabditis elegans N2 and tph-1 were routinely propagated on Nematode Growth Medium (NGM) plates with Escherichia coli strain OP50 as a food source at 20°C, while CL4176 was maintained at 16°C. Worms were synchronized by isolating eggs from gravid adults at 20°C (N2 and tph-1) or 16°C (CL4176), and eggs were hatched overnight in NGM plates. In the experiments, the worms were fed with the different compounds from egg through to adult stages, and transferred to new plates every two days. […]
Viability of C. elegans was assessed after oxidative stress and differences between nematodes cultured in control and treatment conditions were evaluated by means of one-way analysis of variance (ANOVA) using Statgraphics plus (version 5.1) software (Manugistics, Rockville, MD).

Experiment [4] concerns C. elegans strain CL4176 (Aβ1–42). The following applies: ref [36], [37]; cited from earlier work. The text has this:
(§1) This could be explained by the release of bioactive peptides from the protein fraction of the by-product.

The subject of experiment [5] is Aβ42. The following applies: C. elegans; ref [36], [37]; cited from earlier work.
From the text: as §1

T1 sequence (P27028 21-705): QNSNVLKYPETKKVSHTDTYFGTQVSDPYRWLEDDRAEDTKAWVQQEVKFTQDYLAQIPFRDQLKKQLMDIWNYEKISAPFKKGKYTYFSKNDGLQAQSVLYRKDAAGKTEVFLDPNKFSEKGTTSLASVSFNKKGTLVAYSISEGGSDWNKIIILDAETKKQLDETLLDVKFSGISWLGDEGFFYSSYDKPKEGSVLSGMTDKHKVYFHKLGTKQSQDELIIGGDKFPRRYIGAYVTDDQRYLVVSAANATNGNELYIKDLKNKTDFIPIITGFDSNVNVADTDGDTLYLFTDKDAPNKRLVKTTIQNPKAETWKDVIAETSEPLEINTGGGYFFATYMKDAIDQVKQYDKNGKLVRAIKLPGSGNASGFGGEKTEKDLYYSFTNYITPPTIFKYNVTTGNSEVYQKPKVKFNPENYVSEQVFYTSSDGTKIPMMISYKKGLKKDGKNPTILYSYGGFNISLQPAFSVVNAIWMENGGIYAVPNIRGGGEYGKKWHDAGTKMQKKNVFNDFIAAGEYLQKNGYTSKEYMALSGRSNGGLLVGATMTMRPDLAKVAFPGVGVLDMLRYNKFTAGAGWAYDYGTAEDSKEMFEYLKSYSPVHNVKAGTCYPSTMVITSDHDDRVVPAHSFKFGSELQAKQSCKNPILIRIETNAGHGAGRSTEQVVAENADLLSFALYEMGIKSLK

One may read the IC50 as the concentration that inhibits the measured activity by half. In turn, NYDNSAGKW [9L, NYDNSAGKW] had an IC50 in experiment [1] of 484 µM.

With GVKGEPGPNTL [11R, GVKGEPGPNTL], in experiment [2], the “effect on body paralysis (in words)” value was “ability to ameliorate Aβ-induced paralysis”; the “Mid Paralysis (h), time when 50% of worms were paralyzed” value is given as 49 h; the “% of worms non paralyzed at onset of paralysis” value (“% of worms non paralyzed” below) is 89.9%; the “Onset Paralysis, time” value was found to be 41 h. In addition, in experiment [3], the “effect on worm survival after oxidative stress (in words)” value was “significant protection upon oxidative stress”.

Consider “TDGVKGEPGPNTL [13R, synthesized peptide from the 21 kDa seed protein of Theobroma cacao]”, for which, in experiment [2], the “effect on body paralysis (in words)” value was “ability to ameliorate Aβ-induced paralysis”; the “Mid Paralysis (h), time when 50% of worms were paralyzed” value was 49 h; the “% of worms non paralyzed” value is on record as 83.4%; the “Onset Paralysis, time” value is recorded as 41 h. Moreover, the “effect on worm survival after oxidative stress (in words)” value in experiment [3] is reported as “did not produce a significant effect on worm survival rates”. Further, the “inhibitory activity (IC50) against PEP enzyme” value in experiment [1] (synthetic peptides, 0.1 U/ml PEP, 2 mM Z-Gly-Pro-p-nitroaniline, pH 7, 20 min at 30°C, 410 nm) was > 1480 mg/L.

For the compound `O=C[C@@H]1CCCN1C(=O)[C@@H]1CCCN1C(=O)OCc1ccccc1` [ZPP, Z-Prolyl-Prolinal, reference compound] (Cbz-Pro-Pro-aldehyde), in experiment [2], the “Mid Paralysis (h), time when 50% of worms were paralyzed” value was >49 h; the “% of worms non paralyzed” value was found to be 96.7%; the “Onset Paralysis, time” value is 41 h.

The compound DNYDNSAGKWWVT [13L, DNYDNSAGKWWVT] gave an IC50 in experiment [1] of 122 µM.

As for `COC(=O)[C@H]1[C@H]2C[C@@H]3c4[nH]c5cc(OC)ccc5c4CCN3C[C@H]2C[C@@H](OC(=O)c2cc(OC)c(OC)c(OC)c2)[C@@H]1OC` [reserpine], the “effect on paralysis (in words)” value in experiment [4] is “effect on delaying paralysis”. In addition, the “effect on Aβ peptide expression levels (in words)” value in experiment [5] is “no effects were observed in Aβ peptide expression levels”.

(Values after publication PMC3652819, “A Cocoa Peptide Protects Caenorhabditis elegans from Oxidative Stress and β-Amyloid Peptide Toxicity” (PLoS ONE, 2013).)
